The source made the active and inactive calls.
What was measured:
[1] = Luminescence-based counterscreen assay for KLF5 inhibitors: dose response cell-based high throughput screening assay to identify cytotoxic compounds using the IEC-6 intestinal epithelial cell line. [Related pubchem assays: 1700 (Primary screen.), 1834 (Confirmation screen.), 1858 (Summary AID.), 1905 (Counterscreen.)]; assay type: functional
Cytochrome P450 2D6 = Cytochrome P450 2D6 (Homo sapiens, UniProt P10635); experiment: qHTS Assay for Inhibitors and Substrates of Cytochrome P450 2D6. [Related pubchem assays: 410 ]; assay type: ADME; settings: read-out: Potency
Cytochrome P450 2C9 = Cytochrome P450 2C9 (Homo sapiens, UniProt P11712); settings: Potency
[2] = target: Peroxisome proliferator-activated receptor gamma/Nuclear receptor coactivator 3 (Homo sapiens, UniProt P37231); assay type: functional;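 further: agonist potency for raising coactivator recruitment to the receptor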
[3] = target: Peroxisome proliferator-activated receptor gamma/Nuclear receptor coactivator 1 (Homo sapiens, UniProt P37231); assay type: functional;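 further: agonist potency as compounds enhance coactivator SRC-1 recruitment to PPARgamma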
[4] = target: Peroxisome proliferator-activated receptor gamma/Nuclear receptor coactivator 2 (Homo sapiens, UniProt P37231); assay type: functional;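 further: agonist potency for raising coactivator recruitment to the receptor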
[5] = target: T1, Corticotropin-releasing factor receptor 2/Corticotropin-releasing factor-binding protein (Homo sapiens, UniProt P24387+Q13324); experiment: activators of CRF receptor 2 with binding protein – uHTS hits, confirmation (AID 602473); assay type: functional; settings: read-out: EC50_Mean
T1 sequence (Q13324 whole entry): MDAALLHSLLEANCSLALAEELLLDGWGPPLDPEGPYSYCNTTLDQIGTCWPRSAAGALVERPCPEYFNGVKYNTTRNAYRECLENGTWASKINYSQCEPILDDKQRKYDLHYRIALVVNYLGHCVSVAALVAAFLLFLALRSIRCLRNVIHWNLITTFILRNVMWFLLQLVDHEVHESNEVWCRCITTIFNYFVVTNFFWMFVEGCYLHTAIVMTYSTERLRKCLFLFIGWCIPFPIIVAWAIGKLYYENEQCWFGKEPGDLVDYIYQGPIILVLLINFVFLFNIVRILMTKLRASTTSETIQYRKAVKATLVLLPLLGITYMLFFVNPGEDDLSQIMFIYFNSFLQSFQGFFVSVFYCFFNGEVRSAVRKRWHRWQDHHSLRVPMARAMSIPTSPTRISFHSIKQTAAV
T1 sequence (P24387 whole entry): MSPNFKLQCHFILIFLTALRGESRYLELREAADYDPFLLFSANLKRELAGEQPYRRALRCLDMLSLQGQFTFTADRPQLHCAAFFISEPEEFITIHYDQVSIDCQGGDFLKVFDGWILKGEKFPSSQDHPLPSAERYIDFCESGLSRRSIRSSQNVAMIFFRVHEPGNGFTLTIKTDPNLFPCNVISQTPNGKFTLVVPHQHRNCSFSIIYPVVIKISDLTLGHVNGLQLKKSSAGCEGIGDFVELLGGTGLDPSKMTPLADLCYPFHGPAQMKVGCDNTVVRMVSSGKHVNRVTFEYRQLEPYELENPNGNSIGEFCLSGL

X-box-binding protein 1 = X-box-binding protein 1 (Homo sapiens, UniProt P17861); assay type: functional, Cricetulus griseus;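 further: confirmatory dose-response counter-screen serving a CHOP assay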
[6] = NIH3T3 cell viability loss – ATP luminescence, mouse fibroblasts, counter-screen, dose response (AID 2010); assay type: functional, cell-based;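 further: cells exposed to compound for about 90 hours before reading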
[7] = A Cell Based Secondary Assay To Explore Cytotoxicity of Compounds that Sensitize Mycobacterium Tuberculosis to Beta-Lactam Antibiotics.; assay type: functional
[8] = Trypanosoma cruzi growth suppression in host cells – NIH3T3 host cells, beta-gal luminescence, confirmation (AID 2044); assay type: functional, cell-based;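 further: intracellular parasites grown in NIH/3T3 mouse fibroblasts as host cells; luminescent beta-galactosidase reporter signal from transgenic T. cruzi replicating inside host cells; inhibitors lower the luminescence signal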
INS1 = experiment: INS-1E survival protection against cytokine death – cell-based, luminescence, retest, dose response (AID 449756); assay type: functional; settings: Rattus norvegicus;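 further: cell death triggered by IL-1 beta plus TNF-alpha plus IFN-gamma mixture; protective hits raise ATP signal compared with cytokine alone wells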
[9] = luciferase reporter signal suppression in cells – H4 neuroglioma cells, luminescence, dose response (AID 1990); assay type: functional, cell-based
[10] = alpha-synuclein stem-loop luciferase translation blockers – H4 neuroglioma cells, luminescence, confirmation (AID 1988); assay type: functional, cell-based
[11] = HEK-293T viability loss after treatment – luminescence, T-cell screen hits, cytotoxicity control for TCR NF-kB inhibitor project, dose response (AID 489026); assay type: functional, cell-based;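 further: cells exposed to compound about 14 hours before the viability readout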
[12] = Luminescence Cell-Based Dose Response HTS to Identify Inhibitors of 5'UTR Stem-Loop Driven Prion Protein mRNA Translation in H4 Neuroglioblastoma Cells. [Related pubchem assays: 1827 (Project Summary), 1813 (Primary HTS)]; assay type: functional
Hexokinase HKDC1 = target: T2, Hexokinase HKDC1 (Homo sapiens, UniProt Q2TB90); experiment: inhibition of HKDC1 glucose phosphorylation – biochemical, W721R variant, dose response (AID 504729); assay type: functional
T2 sequence (Q2TB90 whole entry): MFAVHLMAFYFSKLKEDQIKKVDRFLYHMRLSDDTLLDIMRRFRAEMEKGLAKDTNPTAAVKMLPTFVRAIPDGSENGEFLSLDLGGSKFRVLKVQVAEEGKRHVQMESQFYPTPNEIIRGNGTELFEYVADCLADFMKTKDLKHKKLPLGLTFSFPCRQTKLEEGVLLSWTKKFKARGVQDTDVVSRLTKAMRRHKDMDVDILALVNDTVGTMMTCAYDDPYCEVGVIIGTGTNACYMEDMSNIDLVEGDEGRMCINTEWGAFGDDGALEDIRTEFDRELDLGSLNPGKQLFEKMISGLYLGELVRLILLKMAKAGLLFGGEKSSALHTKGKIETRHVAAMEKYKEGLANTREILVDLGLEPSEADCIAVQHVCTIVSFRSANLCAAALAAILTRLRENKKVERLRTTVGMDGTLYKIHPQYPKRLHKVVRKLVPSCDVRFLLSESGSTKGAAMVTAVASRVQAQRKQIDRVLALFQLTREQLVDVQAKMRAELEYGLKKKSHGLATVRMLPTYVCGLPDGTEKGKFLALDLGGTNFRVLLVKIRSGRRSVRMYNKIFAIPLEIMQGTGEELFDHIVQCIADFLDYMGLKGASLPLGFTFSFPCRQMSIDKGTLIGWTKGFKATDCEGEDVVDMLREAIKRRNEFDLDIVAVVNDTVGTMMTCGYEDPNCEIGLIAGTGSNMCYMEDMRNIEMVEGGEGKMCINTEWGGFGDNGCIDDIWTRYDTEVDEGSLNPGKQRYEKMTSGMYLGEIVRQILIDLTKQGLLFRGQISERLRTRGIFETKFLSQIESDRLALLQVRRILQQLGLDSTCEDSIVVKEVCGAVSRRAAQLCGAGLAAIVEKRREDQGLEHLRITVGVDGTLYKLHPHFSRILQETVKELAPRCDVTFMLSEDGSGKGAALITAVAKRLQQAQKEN

Cytochrome P450 2C9, sequence (P11712 whole entry): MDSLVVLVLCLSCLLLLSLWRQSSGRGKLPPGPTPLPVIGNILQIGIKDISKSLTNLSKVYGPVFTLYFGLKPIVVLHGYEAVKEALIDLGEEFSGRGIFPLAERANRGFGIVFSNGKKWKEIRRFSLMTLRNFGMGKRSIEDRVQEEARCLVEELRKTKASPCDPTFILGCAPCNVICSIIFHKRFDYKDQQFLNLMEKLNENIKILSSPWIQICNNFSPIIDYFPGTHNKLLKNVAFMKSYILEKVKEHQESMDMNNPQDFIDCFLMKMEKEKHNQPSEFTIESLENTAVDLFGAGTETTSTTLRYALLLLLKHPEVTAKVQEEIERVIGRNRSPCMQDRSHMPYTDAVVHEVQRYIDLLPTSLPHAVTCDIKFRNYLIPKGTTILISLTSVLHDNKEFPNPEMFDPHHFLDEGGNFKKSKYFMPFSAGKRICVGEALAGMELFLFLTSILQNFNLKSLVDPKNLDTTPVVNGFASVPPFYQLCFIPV
Peroxisome proliferator-activated receptor gamma/Nuclear receptor coactivator 2, sequence (P37231 whole entry): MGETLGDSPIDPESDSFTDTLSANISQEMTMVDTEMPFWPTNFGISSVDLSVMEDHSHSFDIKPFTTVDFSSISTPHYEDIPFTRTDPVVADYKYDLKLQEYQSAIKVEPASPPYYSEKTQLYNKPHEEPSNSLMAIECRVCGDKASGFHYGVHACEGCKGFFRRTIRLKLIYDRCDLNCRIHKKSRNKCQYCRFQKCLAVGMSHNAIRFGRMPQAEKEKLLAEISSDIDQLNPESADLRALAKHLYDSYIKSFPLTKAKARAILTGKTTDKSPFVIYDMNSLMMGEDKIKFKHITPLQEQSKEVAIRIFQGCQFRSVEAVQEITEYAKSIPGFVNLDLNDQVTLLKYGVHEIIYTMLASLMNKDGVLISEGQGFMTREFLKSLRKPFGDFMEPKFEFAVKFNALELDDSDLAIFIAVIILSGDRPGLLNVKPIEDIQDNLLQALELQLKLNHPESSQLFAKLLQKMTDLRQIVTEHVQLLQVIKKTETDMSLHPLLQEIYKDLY
Peroxisome proliferator-activated receptor gamma/Nuclear receptor coactivator 2, sequence (Q15596 whole entry, further chain): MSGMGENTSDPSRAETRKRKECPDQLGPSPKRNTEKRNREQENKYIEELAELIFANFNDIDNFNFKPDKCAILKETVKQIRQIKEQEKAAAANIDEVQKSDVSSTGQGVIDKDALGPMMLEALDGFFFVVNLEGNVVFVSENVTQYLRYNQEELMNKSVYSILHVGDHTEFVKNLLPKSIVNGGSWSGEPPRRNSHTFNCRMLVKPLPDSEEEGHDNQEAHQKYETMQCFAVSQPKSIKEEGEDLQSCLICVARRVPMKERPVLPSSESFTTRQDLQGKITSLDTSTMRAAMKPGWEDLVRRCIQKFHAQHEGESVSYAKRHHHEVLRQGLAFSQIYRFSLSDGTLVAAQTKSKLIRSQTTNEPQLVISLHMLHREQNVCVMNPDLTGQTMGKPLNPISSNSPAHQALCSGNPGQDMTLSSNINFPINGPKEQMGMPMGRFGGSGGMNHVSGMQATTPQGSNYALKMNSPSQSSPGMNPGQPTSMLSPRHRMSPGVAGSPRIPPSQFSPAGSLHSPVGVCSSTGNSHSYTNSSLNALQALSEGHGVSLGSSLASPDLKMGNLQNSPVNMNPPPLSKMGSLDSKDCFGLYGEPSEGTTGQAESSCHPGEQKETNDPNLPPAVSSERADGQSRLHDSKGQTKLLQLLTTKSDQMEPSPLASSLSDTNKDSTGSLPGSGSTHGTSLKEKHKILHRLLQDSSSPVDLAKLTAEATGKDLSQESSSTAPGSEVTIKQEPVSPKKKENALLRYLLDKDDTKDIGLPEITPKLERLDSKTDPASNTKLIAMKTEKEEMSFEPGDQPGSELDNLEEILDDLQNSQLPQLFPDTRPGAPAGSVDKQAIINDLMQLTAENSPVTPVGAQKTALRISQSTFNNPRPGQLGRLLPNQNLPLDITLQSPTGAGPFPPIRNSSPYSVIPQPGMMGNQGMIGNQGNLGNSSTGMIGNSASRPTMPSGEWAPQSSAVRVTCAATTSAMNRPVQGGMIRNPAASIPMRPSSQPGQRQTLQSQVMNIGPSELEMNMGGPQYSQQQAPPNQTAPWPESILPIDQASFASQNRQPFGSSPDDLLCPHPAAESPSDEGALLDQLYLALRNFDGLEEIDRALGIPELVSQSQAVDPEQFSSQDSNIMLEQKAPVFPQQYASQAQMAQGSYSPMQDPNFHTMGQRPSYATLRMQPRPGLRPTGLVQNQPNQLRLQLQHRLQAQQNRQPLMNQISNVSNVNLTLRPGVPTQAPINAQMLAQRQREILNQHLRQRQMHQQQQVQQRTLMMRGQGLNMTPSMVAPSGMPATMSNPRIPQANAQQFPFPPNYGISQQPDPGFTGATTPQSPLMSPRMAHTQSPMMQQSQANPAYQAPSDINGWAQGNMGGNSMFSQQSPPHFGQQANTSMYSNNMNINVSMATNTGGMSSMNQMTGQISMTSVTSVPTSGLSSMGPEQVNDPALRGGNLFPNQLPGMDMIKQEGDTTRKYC
Peroxisome proliferator-activated receptor gamma/Nuclear receptor coactivator 1, sequence (P37231 whole entry): as the sequence (P37231 whole entry) above
Peroxisome proliferator-activated receptor gamma/Nuclear receptor coactivator 1, sequence (Q15788 whole entry, further chain): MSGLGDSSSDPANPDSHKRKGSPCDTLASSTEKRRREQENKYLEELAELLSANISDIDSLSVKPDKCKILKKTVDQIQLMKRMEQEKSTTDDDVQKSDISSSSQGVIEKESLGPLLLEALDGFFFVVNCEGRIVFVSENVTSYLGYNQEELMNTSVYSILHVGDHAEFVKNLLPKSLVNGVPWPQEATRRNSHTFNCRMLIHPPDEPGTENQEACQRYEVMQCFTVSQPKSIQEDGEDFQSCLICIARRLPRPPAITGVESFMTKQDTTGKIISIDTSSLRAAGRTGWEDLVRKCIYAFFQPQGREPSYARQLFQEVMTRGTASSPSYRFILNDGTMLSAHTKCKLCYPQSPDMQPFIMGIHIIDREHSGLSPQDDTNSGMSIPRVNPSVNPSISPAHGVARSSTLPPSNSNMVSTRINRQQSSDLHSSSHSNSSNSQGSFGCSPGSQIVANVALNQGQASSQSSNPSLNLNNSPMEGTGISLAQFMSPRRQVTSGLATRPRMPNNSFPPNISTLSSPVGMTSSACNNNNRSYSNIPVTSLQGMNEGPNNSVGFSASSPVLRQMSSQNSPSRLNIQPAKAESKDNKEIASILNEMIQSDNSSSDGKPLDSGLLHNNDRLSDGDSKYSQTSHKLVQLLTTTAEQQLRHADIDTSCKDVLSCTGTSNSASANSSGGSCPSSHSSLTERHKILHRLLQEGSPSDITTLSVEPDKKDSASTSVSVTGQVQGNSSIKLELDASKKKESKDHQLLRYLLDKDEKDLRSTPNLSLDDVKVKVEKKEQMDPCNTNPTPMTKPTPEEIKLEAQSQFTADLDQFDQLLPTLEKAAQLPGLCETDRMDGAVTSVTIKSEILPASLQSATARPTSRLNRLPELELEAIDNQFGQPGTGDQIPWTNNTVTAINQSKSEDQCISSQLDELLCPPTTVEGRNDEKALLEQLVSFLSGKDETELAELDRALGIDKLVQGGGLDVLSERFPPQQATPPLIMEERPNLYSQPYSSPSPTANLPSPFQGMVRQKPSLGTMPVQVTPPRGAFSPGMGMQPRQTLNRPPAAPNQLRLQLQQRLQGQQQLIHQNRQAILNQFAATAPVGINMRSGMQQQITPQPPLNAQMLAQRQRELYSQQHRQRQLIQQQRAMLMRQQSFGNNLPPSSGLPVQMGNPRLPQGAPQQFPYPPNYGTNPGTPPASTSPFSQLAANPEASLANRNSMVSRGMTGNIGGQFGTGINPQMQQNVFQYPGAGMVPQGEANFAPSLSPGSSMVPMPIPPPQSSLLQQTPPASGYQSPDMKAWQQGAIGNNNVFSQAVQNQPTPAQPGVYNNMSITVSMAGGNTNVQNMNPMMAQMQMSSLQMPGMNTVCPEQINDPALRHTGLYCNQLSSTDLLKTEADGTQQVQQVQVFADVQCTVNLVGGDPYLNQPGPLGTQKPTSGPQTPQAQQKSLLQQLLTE
Cytochrome P450 2D6, sequence (P10635 whole entry): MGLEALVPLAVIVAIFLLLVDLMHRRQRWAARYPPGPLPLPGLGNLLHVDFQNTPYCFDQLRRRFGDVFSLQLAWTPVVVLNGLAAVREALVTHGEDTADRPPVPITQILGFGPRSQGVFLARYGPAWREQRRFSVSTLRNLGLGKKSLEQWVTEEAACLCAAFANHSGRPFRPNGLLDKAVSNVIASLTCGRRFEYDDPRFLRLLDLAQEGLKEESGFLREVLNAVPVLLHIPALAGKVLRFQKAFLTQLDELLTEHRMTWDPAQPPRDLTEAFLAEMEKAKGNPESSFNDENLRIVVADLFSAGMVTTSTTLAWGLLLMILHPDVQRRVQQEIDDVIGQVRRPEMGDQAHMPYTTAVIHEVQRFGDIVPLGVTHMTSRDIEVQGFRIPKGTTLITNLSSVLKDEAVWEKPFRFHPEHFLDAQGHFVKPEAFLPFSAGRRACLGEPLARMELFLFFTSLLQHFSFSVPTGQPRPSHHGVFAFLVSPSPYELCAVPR

In the case of `CCOC(=O)c1sc(NC(=O)c2cc3ccccc3o2)nc1C`, the IC50 [1] is reported as > 39.8 µM (not active).

In the case of `COc1cc(OC)cc([C@H](CNc2ncnc3c2ncn3[C@@H]2O[C@@H](CO)[C@H](O)[C@@H]2O)c2ccccc2C)c1`, the AC50 (Cytochrome P450 2D6) is reported as 39.8 µM (inconclusive) and the AC50 (Cytochrome P450 2C9) is reported as 0.0158 µM (inconclusive).

In the case of `CC(C)(C)c1nnc(NC(=O)CN2C(=O)C3C4C=CC(C4)C3C2=O)s1` (stereo not given), the EC50 [2] is reported as > 79.4 µM (not active), the EC50 [3] is reported as > 79.4 µM (not active) and the EC50 [4] is reported as > 79.4 µM (not active).

With `CC1(c2ccc(OC(F)F)cc2)NC(=O)N(/N=C/c2c(O)ccc3ccccc23)C1=O` (stereo not given) the EC50 [5] was > 53 µM (inactive) and the “Absolute IC50 (XBP1)” value (X-box-binding protein 1) was 10 µM.

With `CCCCOc1ccc(/C=N/Nc2cc(N3CCOCC3)nc(C)n2)cc1` the EC50 [6] was > 60 µM (not active), the CC50 [7] was > 40 µM (active) and the EC50 [8] was 2.46 µM (active).

In the case of `CC(C)C[C@@H](CC(=O)N[C@@H](CCCN)CC(=O)N[C@@H]1CCNC[C@H]1C(=O)N[C@H](CC(=O)N[C@@H](CCC(=O)O)CC(=O)O)CC(C)C)NC(=O)[C@@H]1CCCC[C@H]1N`, the AC50 (Cytochrome P450 2C9) is reported as 12.6 µM (inconclusive).

For `C#Cc1ccc([C@@H]2C=C(C(=O)N3CCN(Cc4ccccc4)CC3)O[C@H](OCCCCO)C2)cc1`, the AC50 (INS1) was 1.01 µM (active), the IC50 [1] was > 39.8 µM (not active) and the EC50 [9] was 9.88 µM (active). For the same molecule, the EC50 [10] was 7.64 µM (active), the IC50 [11] was > 80 µM (inactive) and the EC50 [12] was 9.17 µM (active).

With `COc1ccc(OC)c(-c2cc(C(=O)Nc3c(C)nn(Cc4ccccc4C)c3C)no2)c1` the CC50 [7] was 34.7 µM (active).

With `COC(=O)c1ccc(NC(=O)CSc2n[nH]c(-c3ccncc3)n2)cc1` the IC50 (Hexokinase HKDC1) was 17.6 µM (active).

Reference: ChEMBL document CHEMBL1201862, “PubChem BioAssay data set” (2004)
